Laboratory results taken from patent publication US20210403443A1, “SUBSTITUTED 1,2,4-OXADIAZOLE, ITS APPLICATION AND A PHARMACEUTICAL PREPARATION COMPRISING IT” (SVENOX PHARMACEUTICALS LLC, priority 2018, published 2021).
Converted amounts (≈) assume the structure as drawn.

Experiments:
Test in all cases: microbe, parasite or virus in culture
Format in all cases: cell-based
Conditions in all cases: for MIC: Mycobacterium tuberculosis, 336 h, read-out: Minimum inhibiting concentration of substances with general formula I
[1] = test system: M. tuberculosis MDR strain Praha 4
[2] = test system: M. tuberculosis MDR strain Praha 131
[3] = test system: M. tuberculosis MDR strain 8666/2010
[4] = test system: M. tuberculosis MDR strain 7357/1998
[5] = test system: M. tuberculosis MDR strain 234/2005
[6] = test system: M. tuberculosis MDR strain 9449/2007
[7] = test system: M. tuberculosis MDR strain Praha 1

Row | Molecule | Minimum inhibiting concentration of commonly used antibiotics and antituberculosis medicaments [1] | strain resistant or sensitive to the drug [1] | Minimum inhibiting concentration of commonly used antibiotics and antituberculosis medicaments [2] | strain resistant or sensitive to the drug [2] | Minimum inhibiting concentration of commonly used antibiotics and antituberculosis medicaments [3] | strain resistant or sensitive to the drug [3] | Minimum inhibiting concentration of commonly used antibiotics and antituberculosis medicaments [4] | strain resistant or sensitive to the drug [4] | Minimum inhibiting concentration of commonly used antibiotics and antituberculosis medicaments [5] | strain resistant or sensitive to the drug [5] | Minimum inhibiting concentration of commonly used antibiotics and antituberculosis medicaments [6] | strain resistant or sensitive to the drug [6] | Minimum inhibiting concentration of commonly used antibiotics and antituberculosis medicaments [7] | strain resistant or sensitive to the drug [7] | MIC [1] [µM] | MIC [2] [µM] | MIC [3] [µM] | MIC [4] [µM] | MIC [5] [µM] | MIC [6] [µM] | also measured
1 | NCC[C@H](O)C(=O)N[C@@H]1C[C@H](N)[C@@H](O[C@H]2O[C@H](CN)[C@@H](O)[C@H](O)[C@H]2O)[C@H](O)[C@H]1O[C@H]1O[C@H](CO)[C@@H](O)[C@H](N)[C@H]1O [Amikacin] | 0.85 C μmol · l^−1 | 0.85 C | >27.2 R μmol · l^−1 | >27.2 R | 1.7 C μmol · l^−1 | 1.7 C | 0.85 C μmol · l^−1 | 0.85 C | 0.43 C μmol · l^−1 | 0.43 C | 0.43 C μmol · l^−1 | 0.43 C | 0.43 C μmol · l^−1 | 0.43 C | – | – | – | – | – | – | –
2 | CC(C)/N=c1\cc2n(-c3ccc(Cl)cc3)c3ccccc3nc-2cc1Nc1ccc(Cl)cc1 [Clofazimin] | 0.53 R μmol · l^−1 | 0.53 R | 0.26 C μmol · l^−1 | 0.26 C | 2.11 R μmol · l^−1 | 2.11 R | 0.13 C μmol · l^−1 | 0.13 C | 0.06 C μmol · l^−1 | 0.06 C | 0.13 C μmol · l^−1 | 0.13 C | 0.53 R μmol · l^−1 | 0.53 R | – | – | – | – | – | – | –
3 | COc1ccc(-c2noc(SCc3cc([N+](=O)[O-])cc([N+](=O)[O-])c3)n2)cc1 [Compound 3] | – | – | – | – | – | – | – | – | – | – | – | – | – | – | 0.5 (≈ 0.194 µg/mL) | 0.5 (≈ 0.194 µg/mL) | 0.5 (≈ 0.194 µg/mL) | 0.5 (≈ 0.194 µg/mL) | 0.5 (≈ 0.194 µg/mL) | 0.5 (≈ 0.194 µg/mL) | MIC [7]: 1 µM (≈ 0.388 µg/mL)
4 | O=[N+]([O-])c1cc(CSc2nc(-c3ccc(Cl)cc3)no2)cc([N+](=O)[O-])c1 [Compound 4] | – | – | – | – | – | – | – | – | – | – | – | – | – | – | 0.5 (≈ 0.196 µg/mL) | 1 (≈ 0.393 µg/mL) | 0.5 (≈ 0.196 µg/mL) | 1 (≈ 0.393 µg/mL) | 0.5 (≈ 0.196 µg/mL) | 1 (≈ 0.393 µg/mL) | MIC [7]: 2 µM (≈ 0.786 µg/mL)
5 | O=[N+]([O-])c1cc(CSc2nc(-c3cccc(Cl)c3)no2)cc([N+](=O)[O-])c1 [Compound 5] | – | – | – | – | – | – | – | – | – | – | – | – | – | – | 0.5 (≈ 0.196 µg/mL) | 1 (≈ 0.393 µg/mL) | 0.5 (≈ 0.196 µg/mL) | 1 (≈ 0.393 µg/mL) | 0.5 (≈ 0.196 µg/mL) | 1 (≈ 0.393 µg/mL) | MIC [7]: 1 µM (≈ 0.393 µg/mL)
6 | O=[N+]([O-])c1cc(CSc2nc(-c3ccc(F)cc3)no2)cc([N+](=O)[O-])c1 [Compound 8] | – | – | – | – | – | – | – | – | – | – | – | – | – | – | 0.5 (≈ 0.188 µg/mL) | 0.5 (≈ 0.188 µg/mL) | 0.5 (≈ 0.188 µg/mL) | 0.5 (≈ 0.188 µg/mL) | 0.5 (≈ 0.188 µg/mL) | 0.5 (≈ 0.188 µg/mL) | MIC [7]: 0.5 µM (≈ 0.188 µg/mL)
7 | O=[N+]([O-])c1cc(CSc2nc(-c3ccc(Br)cc3)no2)cc([N+](=O)[O-])c1 [Compound 9] | – | – | – | – | – | – | – | – | – | – | – | – | – | – | 0.5 (≈ 0.219 µg/mL) | 1 (≈ 0.437 µg/mL) | 0.5 (≈ 0.219 µg/mL) | 1 (≈ 0.437 µg/mL) | 0.5 (≈ 0.219 µg/mL) | 0.5 (≈ 0.219 µg/mL) | MIC [7]: 0.5 µM (≈ 0.219 µg/mL)
8 | CC[C@@H](CO)NCCN[C@@H](CC)CO [Etambutol] | 19.6 R μmol · l^−1 | 19.6 R | 39.2 R μmol · l^−1 | 39.2 R | 19.6 R μmol · l^−1 | 19.6 R | 19.6 R μmol · l^−1 | 19.6 R | 19.6 R μmol · l^−1 | 19.6 R | 9.8 C μmol · l^−1 | 9.8 C | 39.2 R μmol · l^−1 | 39.2 R | – | – | – | – | – | – | –
9 | NNC(=O)c1ccncc1 [Isoniazid] | 14.6 R μmol · l^−1 | 14.6 R | 14.6 R μmol · l^−1 | 14.6 R | 29.2 R μmol · l^−1 | 29.2 R | 14.6 R μmol · l^−1 | 14.6 R | 14.6 R μmol · l^−1 | 14.6 R | 58.3 R μmol · l^−1 | 58.3 R | 14.6 R μmol · l^−1 | 14.6 R | – | – | – | – | – | – | –
10 | CC1COc2c(N3CCN(C)CC3)c(F)cc3c(=O)c(C(=O)O)cn1c23 (stereo not drawn) [Ofloxacin] | >22.2 R μmol · l^−1 | >22.2 R | 22.2 R μmol · l^−1 | 22.2 R | 11.1 R μmol · l^−1 | 11.1 R | 11.1 R μmol · l^−1 | 11.1 R | 0.69 C μmol · l^−1 | 0.69 C | 2.75 C μmol · l^−1 | 2.75 C | 1.38 C μmol · l^−1 | 1.38 C | – | – | – | – | – | – | –
11 | CO[C@H]1/C=C/O[C@@]2(C)Oc3c(C)c(O)c4c(O)c(c(/C=N/N5CCN(C)CC5)c(O)c4c3C2=O)NC(=O)/C(C)=C\C=C\[C@H](C)[C@H](O)[C@@H](C)[C@@H](O)[C@@H](C)[C@H](OC(C)=O)[C@@H]1C [Rifampicin] | >9.7 R μmol · l^−1 | >9.7 R | >9.7 R μmol · l^−1 | >9.7 R | >9.7 R μmol · l^−1 | >9.7 R | >9.7 R μmol · l^−1 | >9.7 R | >9.7 R μmol · l^−1 | >9.7 R | >9.7 R μmol · l^−1 | >9.7 R | >9.7 R μmol · l^−1 | >9.7 R | – | – | – | – | – | – | –
12 | [H]/N=C(/N)N[C@H]1[C@H](O)[C@@H](O)[C@H](O[C@@H]2O[C@@H](C)[C@](O)(C=O)[C@H]2O[C@@H]2O[C@@H](CO)[C@H](O)[C@@H](O)[C@@H]2NC)[C@@H](N/C(N)=N\[H])[C@@H]1O [Streptomycin] | >27.5 R μmol · l^−1 | >27.5 R | >27.5 R μmol · l^−1 | >27.5 R | >27.5 R μmol · l^−1 | >27.5 R | >27.5 R μmol · l^−1 | >27.5 R | 27.5 R μmol · l^−1 | 27.5 R | >27.5 R μmol · l^−1 | >27.5 R | 13.7 R μmol · l^−1 | 13.7 R | – | – | – | – | – | – | –
13 | Gentamicin | 0.52 C μmol · l^−1 | 0.52 C | >8.37 R μmol · l^−1 | >8.37 R | 2.09 C μmol · l^−1 | 2.09 C | 1.05 C μmol · l^−1 | 1.05 C | 0.26 C μmol · l^−1 | 0.26 C | 1.05 C μmol · l^−1 | 1.05 C | 1.05 C μmol · l^−1 | 1.05 C | – | – | – | – | – | – | –
